Common to all, as to assay type: functional
For assay [1], the system named is MCF7. In words: Cytotoxicity against human MCF7 cells assessed as cell viability at 10 uM after 48 hrs by MTT assay relative to control. The conditions noted are these: MCF7, 48 h, read-out: Activity.
Assay [2] concerns MDA-MB-468. In words: Cytotoxicity against EGFR over-expressing human MDA-MB-468 cells assessed as cell viability at 10 uM after 48 hrs by MTT assay relative to control. Particulars: MDA-MB-468, 48 h, read-out: Activity.
In assay [3] the test system is MCF7. In words: cells. Particulars: Homo sapiens, MCF7, 48 h.
Description: Growth inhibition of human MCF7 cells after 48 hrs by MTT assay
Assay [4] has as its system MDA-MB-468. In words: cells. The conditions noted are these: Homo sapiens, MDA-MB-468, 48 h.
Description: Growth inhibition of EGFR over-expressing human MDA-MB-468 cells after 48 hrs by MTT assay
A short description of assay [5]: Selectivity index, ratio of GI50 for human MCF7 cells to GI50 for EGFR over-expressing human MDA-MB-468 cells.

Molecules are shown by their SMILES.

The term GI50 denotes the concentration that inhibits growth by half. Higher therefore signals less potent growth inhibition. `ClC1CCN(c2ccnc(Nc3ccc(OCCCN4CCCCC4)cc3)n2)CC1`: the viability at 10 µM in assay [1] was 87.1%; in assay [2] it was 52.1%. In addition, the GI50 in assay [3] is more than 30 µM; in assay [4] it was 11.5 µM. Also, in assay [5], the RatioGI50 was more than 2.6.
As to `c1cc(N2CCOCC2)nc(Nc2ccc(OCCCN3CCSCC3)cc2)n1`, the results for the viability at 10 µM in assay [1] and in assay [2] were 67.9% and 57.4%, respectively.
In the same order, the values of `CCN(CC)CCCOc1ccc(Nc2nccc(N3CCCCC3)n2)cc1` are 95.4% and 62%.
As to `ClC1CCN(c2ccnc(Nc3ccc(OCCCN4CCOCC4)cc3)n2)CC1`, the viability at 10 µM in assay [1] worked out at 93.3%; in assay [2] it was 61.6%.
For `CCN(CC)c1ccnc(Nc2ccc(OCCCN3CCCCC3)cc2)n1`, the viability at 10 µM came out at 69.7% in assay [1] and 53.1% in assay [2]. Further, the concentration for 50% growth inhibition (GI50) in assay [3] is 18.3 µM; in assay [4], 11.4 µM. Besides, in assay [5], the RatioGI50 is recorded as 1.6.
Turning to `c1cc(N2CCOCC2)nc(Nc2ccc(OCCCN3CCCCC3)cc2)n1`, the viability at 10 µM in assay [1] was 95.7%; in assay [2] it was 86.8%.
On to `CCN(CC)c1ccnc(Nc2ccc(OCCCN3CCOCC3)cc2)n1`, for which the viability at 10 µM in assay [1] was determined as 94.9%; in assay [2] it was 69.7%.
Consider `c1cc(N2CCOCC2)nc(Nc2ccc(OCCCN3CCOCC3)cc2)n1`, for which the viability at 10 µM in assay [1] turned out to be 83.2%; in assay [2], 84.5%.
Take `c1cc(N2CCCCC2)nc(Nc2ccc(OCCCN3CCOCC3)cc2)n1`: the results for the viability at 10 µM in assay [1] and in assay [2] were 61.8% and 55.2%, respectively. The concentration for 50% growth inhibition (GI50) in assay [3] was more than 30 µM; in assay [4], 18.3 µM.
For `CCN(CC)CCCOc1ccc(Nc2nccc(N3CCOCC3)n2)cc1`, the results for the viability at 10 µM in assay [1] and in assay [2] were 66.5% and 79.4%, respectively.
For `c1cc(N2CCSCC2)nc(Nc2ccc(OCCCN3CCCCC3)cc2)n1`, in that order: 60% and 78.1%.
Turning to `CC1CCN(c2ccnc(Nc3ccc(OCCCN4CCSCC4)cc3)n2)CC1`, the viability at 10 µM in assay [1] was found to be 79.5%; in assay [2], 61.3%.
Regarding `c1cc(N2CCCC2)nc(Nc2ccc(OCCCN3CCCCC3)cc2)n1`, the viability at 10 µM turned out to be 66.1% in assay [1] and 58.1% in assay [2].
As to `ClC1CCN(c2ccnc(Nc3ccc(OCCCN4CCSCC4)cc3)n2)CC1`, the results for the viability at 10 µM in assay [1] and in assay [2] were 87.7% and 62.7%, respectively.
In the case of `c1cc(N2CCCCC2)nc(Nc2ccc(OCCCN3CCSCC3)cc2)n1`, the viability at 10 µM is 72.9% in assay [1] and 71.8% in assay [2].
On to `CC1CCN(c2ccnc(Nc3ccc(OCCCN4CCOCC4)cc3)n2)CC1`, for which the viability at 10 µM was found to be 71.8% in assay [1] and 51.3% in assay [2]. Moreover, the GI50 is more than 30 µM in assay [3] and 16.3 µM in assay [4]. Moreover, in assay [5], the RatioGI50 is reported as more than 1.8.
Take `CCN(CC)CCCOc1ccc(Nc2nccc(N3CCN(C)CC3)n2)cc1`: the viability at 10 µM is 67% in assay [1] and 64.6% in assay [2].
As to `CCN(CC)c1ccnc(Nc2ccc(OCCCN3CCSCC3)cc2)n1`, the viability at 10 µM in assay [1] came to 91.9%; in assay [2] it was 36%. The 50% growth inhibitory concentration (GI50) in assay [3] came out at 27.3 µM; in assay [4], 7.6 µM. Besides, in assay [5], the RatioGI50 was found to be 3.6.
Regarding `CCN(CC)CCCOc1ccc(Nc2nccc(N3CCCC3)n2)cc1`, the viability at 10 µM is 78.5% in assay [1] and 69.7% in assay [2].
As to `c1cc(N2CCSCC2)nc(Nc2ccc(OCCCN3CCSCC3)cc2)n1`, the viability at 10 µM in assay [1] came out at 77.8%; in assay [2] it was 65%.
In the case of `c1cc(N2CCSCC2)nc(Nc2ccc(OCCCN3CCOCC3)cc2)n1`, the viability at 10 µM worked out at 86.1% in assay [1] and 73.4% in assay [2].
Consider `COc1cc2ncnc(Nc3ccc(F)c(Cl)c3)c2cc1OCCCN1CCOCC1` [GEFITINIB], for which the viability at 10 µM worked out at 70.3% in assay [1] and 60.3% in assay [2].
In the same order, the values of `CCN(CC)CCCOc1ccc(Nc2nccc(N3CCSCC3)n2)cc1` are 86.4% and 88%.
For the compound `CCN(CC)CCCOc1ccc(Nc2nccc(N3CCC(C)CC3)n2)cc1`, the viability at 10 µM in assay [1] stood at 93.2%; in assay [2], 16.9%. Also, the GI50 is more than 30 µM in assay [3] and 6.9 µM in assay [4]. In assay [5], the RatioGI50 is listed as more than 4.3.
As to `CN1CCN(c2ccnc(Nc3ccc(OCCCN4CCOCC4)cc3)n2)CC1`, the viability at 10 µM was determined as 89.6% in assay [1] and 80.7% in assay [2].
For the compound `CC1CCN(c2ccnc(Nc3ccc(OCCCN4CCCCC4)cc3)n2)CC1`, the viability at 10 µM in assay [1] was found to be 73.7%; in assay [2], 21.3%. The concentration for 50% growth inhibition (GI50) was found to be 28.1 µM in assay [3] and 6.4 µM in assay [4]. Besides, the RatioGI50 in assay [5] came out at 4.4.
Take `c1cc(N2CCCC2)nc(Nc2ccc(OCCCN3CCSCC3)cc2)n1`: the viability at 10 µM in assay [1] worked out at 84.7%; in assay [2], 78.3%.
Regarding `CN1CCN(c2ccnc(Nc3ccc(OCCCN4CCCCC4)cc3)n2)CC1`, the values for the viability at 10 µM in assay [1] and in assay [2] were 76.9% and 71.7%, respectively.
On to `c1cc(N2CCCC2)nc(Nc2ccc(OCCCN3CCOCC3)cc2)n1`, for which the values for the viability at 10 µM in assay [1] and in assay [2] were 89% and 77.1%, respectively.
For the compound `CN1CCN(c2ccnc(Nc3ccc(OCCCN4CCSCC4)cc3)n2)CC1`, the viability at 10 µM was determined as 79.8% in assay [1] and 56.5% in assay [2].
Turning to `c1cc(N2CCCCC2)nc(Nc2ccc(OCCCN3CCCCC3)cc2)n1`, the viability at 10 µM in assay [1] is 86.7%; in assay [2], 45.1%. Besides, the figures for the concentration for 50% growth inhibition (GI50) in assay [3] and in assay [4] were more than 30 µM and 9.2 µM, respectively. The RatioGI50 in assay [5] is listed as more than 3.3.
